Data as given in patent US7897588B2, “Agents and methods for enhancing bone formation” (The Regents of the University of California, priority 2003, dated 2011).

What was measured:
[1] = test system: M2-10B4 mouse marrow stromal cell line; test: Alkaline phosphatase (ALP) activity assay in M2 cells; assay type: cell-based; conditions: for dose and time dependence of induction of alkaline phosphatase activity: concentrations between 0.5-10 μM; for alkaline phosphatase activity: ligands used at 10 μM, control C: 18±2, ±SD; for induction of alkaline phosphatase activity: osteogenic medium, 10 μM oxysterols, 3 days
Method: Cells: M2-10B4 mouse marrow stromal cell line obtained from American Type Culture Collection (ATCC, Rockville, Md., U.S.A.) was derived from bone marrow stromal cells of a (C57BL/6J×C3H/HeJ) F1 mouse, and support human and murine myelopoiesis in long-term cultures (as per ATCC) and have the ability to differentiate into osteoblastic and adipocytic cells. Unless specified, these cells were cultured in RPMI 1640 containing 10% heat-inactivated FBS, and supplemented with 1 mM sodium pyruvate, 100 U/ml penicillin, and 100 […] (all from Irvine Scientific).
Alkaline phosphatase activity assay: Colorimetric alkaline phosphatase (ALP) activity assay on whole cell extracts was performed as previously described.
Test 1: M2 cells at confluence were treated with control vehicle (C), or 10 μM oxysterols, in an osteogenic medium consisting of RPMI 1640 to which 10% fetal bovine serum (FBS), 50 μg/ml ascorbate and 3 mM beta-glycerophosphate (βGP) were added. After 3 days of incubation, alkaline phosphatase (ALP) activity was determined in cell homogenates by a colorimetric assay. […] FIG. 3A is a bar graph depicting the effect of various oxysterols on alkaline phosphatase activity in M2 cells.
M2 cells at confluence were treated in osteogenic medium with control vehicle (C) or a combination of 22R and 20S oxysterols, at the indicated concentrations. ALP activity was measured after 3 days as described above. […] FIG. 3B is a bar graph depicting the effect of a combination of oxysterols at various doses on alkaline phosphatase activity in M2 cells.
Test 2: M2 cells were grown in RPMI medium containing 10% fetal bovine serum (FBS). At confluence, the cells were treated in RPMI containing 5% FBS plus ascorbate at 50 μg/ml and β-glycerophosphate at 3 mM to induce osteoblastic differentiation. Adipogenic differentiation was induced by treating the cells in growth medium plus 10 ˜M troglitazone. A vehicle (C) or oxysterol treatment was applied to cells in a variety of doses (in μM): 20S-Hydroxycholesterol, 25-Hydroxycholesterol, 22R-Hydroxycholesterol; 22S-Hydroxycholesterol; 7-ketocholesterol. Cells were always treated at 90% confluence. After 4 days, alkaline phosphatase activity was determined in whole cell lysates and normalized to protein. Alternatively, MSC cultures were prepared and treated with oxysterols as described above. Cells were treated at 90% confluence with the combination of 22R-Hydroxycholesterol and 20S-Hydroxycholesterol, each at 5 uM, for 4 to 96 hours. The oxysterols where removed and fresh media without oxysterols was added for a total duration of 96 hours. Alkaline phosphatase activity was measured in whole cell extracts and normalized to protein.
M2 cells were treated at 90% confluence with vehicle (C), or oxysterols 20S-Hydroxycholesterol or 22S-Hydroxycholesterol at (0.5 μM) or (1 μM), in the absence or presence of cytochrome P450 inhibitor (SKF525A 10 μM (+)). MSC cultures were also treated at 90% confluence with vehicle (C), or 20S-Hydroxycholesterol (2 μM), in the absence or presence of cytochrome P450 […] (Benzylimidazole 50 μM) or SKF525A (10 μM). After 4 days, alkaline phosphatase activity was measured in whole cell extracts and normalized to protein.
Next, a combination of 22R and 20S oxysterols (RS, 2.5 μM each) were added in the presence or absence of SC as indicated. After 3 days, ALP activity was measured as described earlier. […] (B) M2 cells were treated as described in (A) and after 10 days matrix mineralization in cultures was quantified by a ^45Ca incorporation assay as described earlier.

M2 cells = test: Adipogenesis of troglitazone-treated M2 cells (oil Red O staining, adipocyte count); assay type: cell-based, mouse; conditions: M2 cells treated with Tro 10 μM, oxysterols 10 μM, 10 days
Method: Von Kossa and oil red O staining—Matrix mineralization in cell monolayers was detected by silver nitrate staining as previously described. Oil red O staining for detection of adipocytes was performed as previously described.
Test 1: M2 cells at 90% confluence were treated with vehicle (C), PPAR-γ activator, troglitazone 10 uM (Tro), alone or in combination with 10 μM oxysterols 20S-, 22R-, or 25S-hydroxycholesterol. After 8 days, adipocytes were identified by oil Red 0 staining and quantified by counting under a phase contrast microscope. FIG. 6A is a bar graph depicting the effect of oxysterols on reducing adipogenesis of MSC.
Test 2: (A) M2 cells at confluence were treated in RPMI containing 10% FBS with control vehicle or 10 μM troglitazone (Tro) in the absence or presence of 10 μM 20S or 22S oxysterols. After 10 days, adipocytes were visualized by oil Red O staining and quantified by light microscopy, shown in (B). Data from a representative of four experiments are shown, reported as the mean SD of quadruplicate determinations (p<0.001 for Tro vs. Tro+20S and Tro+22S). (C) M2 cells were treated at confluence with 10 μM Tro, alone or in combination with 10 μM 20S oxysterol. After 10 days, total RNA was isolated and analyzed for lipoprotein lipase (LPL), adipocyte P2 gene (aP2) or 18S rRNA expression by Northern blotting as described (Ref). Data from densitometric analysis of the Northern blot is shown in (D) as the average of duplicate samples, normalized to 18S rRNA.

ERK1 and ERK2 = test: Western blot for phosphorylated ERK in M2 cells; assay type: cell-based, mouse; conditions: 5 μM 20S, 1, 4 or 8 hours
Method: Western blot analysis—After treatments, cells were lysed in lysis buffer, protein concentrations determined using the Bio-Rad protein assay (Hercules, Calif. U.S.A.), and SDS-PAGE performed as previously described. Probing for native and phosphorylated ERKs was performed as previously reported.
(A) M2 cells at confluence were pretreated for four hours with RPMI containing 1% FBS, followed by treatment with control vehicle or 5 μM 20S oxysterol for 1, 4, or 8 hours. Next total cell extracts were prepared and analyzed for levels of native or phosphorylated ERK (pERK) using specific antibodies as previously described. Data from a representative of four experiments are shown, each treatment shown in duplicate samples. (B) M2 cells at confluence were pretreated for 2 hours with control vehicle (C) or 20 μM PD98059 (PD) in osteogenic medium as previously described. Next, a combination of 22R and 20S oxysterols (RS, 5 μM each) were added to appropriate wells as indicated. After 10 days of incubation, matrix mineralization was quantified by the ^45Ca incorporation assay as previously described. Data from a representative of three experiments are reported as the mean±SD of quadruplicate determinations, normalized to protein concentration (p<0.01 for RS vs. RS+PD). […] After 10 days, adipocytes were visualized by oil Red O staining and quantified by light microscopy as previously described. […]

Structure (SMILES)	dose and time dependence of induction of alkaline phosphatase activity [1]	alkaline phosphatase activity [1]	induction of alkaline phosphatase activity [1]	inhibition of adipogenesis (M2 cells)	activation of ERK1 and ERK2 (ERK1 and ERK2)	effect on alkaline phosphatase activity ([1]; TO at 1-10 μM)
CC(C)CCC[C@](C)(O)[C@H]1CC[C@H]2[C@@H]3CC=C4C[C@@H](O)CC[C@]4(C)[C@H]3CC[C@@]21C [20S, 20(S)-hydroxycholesterol]	dose- and time-dependent	140±12 activity units/mg protein	induced	inhibited adipogenesis	sustained activation	
CC(C)CC[C@@H](O)[C@@H](C)[C@H]1CC[C@H]2[C@@H]3CC=C4C[C@@H](O)CC[C@]4(C)[C@H]3CC[C@]12C [22R, 22(R)-hydroxycholesterol]	dose- and time-dependent	45±5 activity units/mg protein	induced	inhibited adipogenesis		
CC(C)CC[C@H](O)[C@@H](C)[C@H]1CC[C@H]2[C@@H]3CC=C4C[C@@H](O)CC[C@]4(C)[C@H]3CC[C@]12C [22S, 22(S)-hydroxycholesterol]	dose- and time-dependent		induced	inhibited adipogenesis		
O=S(=O)(c1ccccc1)N(CC(F)(F)F)c1ccc(C(O)(C(F)(F)F)C(F)(F)F)cc1 [TO, TO-901317]		3±0.5 activity units/mg protein				dose-dependent inhibition
